# PubChem BioAssay AID1576 (EPA DSSTox, 2009)
# Calls of active or inactive are those of the source.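 How the source made its calls: active means chemicals shown by follow-up kinetic tests to compete for rat estrogen receptor sites, with a measured inhibition constant; inconclusive means some binding seen but constant unmeasurable owing to poor solubility; inactive means no binding up to top dose, or binding unconfirmed.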
# Target: Estrogen receptor (Rattus norvegicus) (UniProt P06211)
# Test: DSSTox (KIERBL) EPA Estrogen Receptor Ki Binding Study (Laws et al.) Database
# Conditions: Rat uterine cytosol ER, 3H-estradiol competitive binding
# Experimental: This study was conducted by EPA researchers to evaluate the validity of the rat uterine cytosolic (RUC) estrogen receptor (ER) competitive binding assay for use in the Endocrine Disruption Screening Program (EDSP). The assay measures the ability of radiolabeled 17-beta-estradiol (3H-E2) to bind with RUC ER in the presence of increasing concentrations of a test chemical. The goal is to employ this in vitro assay as a 1st tier screening tool for assessing the potential of structurally diverse environmental chemicals to bind to the ER, as well as to support research efforts to develop computational models to predict ER binding. A distinguishing feature of the present study was the use of secondary experimental analysis of binding curves and determination of Ki values to confirm that measured IC50 values corresponded to true positive results. The study concluded that a number of experimental conditions can confound interpretation of IC50 values obtained from the RUC ER-binding assay data and lead to false positive results. In particular, some chemical treatments likely alter the stability of the assay by changing the buffer pH, denaturing ER, or disrupting the ER binding kinetics. […] The chemicals used in this study were selected as part of a validation test for two Quantitative Structure-Activity Relationship (QSAR) models designed to predict ER binding [Fed. Reg. 67(250), 79618, Dec. 30, 2002]. Several hundred chemicals were initially screened, including approximately 100 chemicals selected from among the High Production Volume (HPV) chemicals included in EPA's Toxic Substances Control Act (TSCA) inventory that were predicted to be positive for ER binding, with the rest selected at random from the TSCA inventory. All chemicals were initially tested in ER competitive binding assays by Battelle Pacific Northwest Laboratories, Richland, Washington [EPA Contract Number 68-W-99-033, Task 6]. Approximately 50 chemicals produced binding curves that: (1) strongly implied competitive inhibition of ER binding, or (2) produced partial curves or irregular (non-sigmoid) binding curves. These chemicals were further evaluated in an ER competitive binding assay with secondary analysis to confirm true competitive inhibition and to determine an experimental Ki [U.S. EPA Contract 3D-5967-NTEX]. The results of RUC ER screening for these 50 structurally diverse chemicals, for which secondary confirmatory analyses were performed, were published in the Main Citation (Laws et al., 2006, Tox. Sci. 94:46-56). The remaining 228 chemicals were designated as non-binders based on initial screening studies.
# The DSSTox KIERBL data files include all published IC50 and Ki experimental results for the 50 chemicals included in the Main Citation (Laws et al., 2006) (denoted Group 1), as well as previously unpublished results for an additional 228 structually diverse TSCA chemicals for which no ER binding was observed (denoted Group 2. IC50 values were determined for 32 compounds in Group 1 as the concentration of a test chemical that inhibits the maximal specific binding of 0.33 nM radiolabeled (3H) 17-beta-estradiol (E2) to rat uterine cytosolic (RUC) estrogen receptor (ER) by 50%. Confirmation of binding status was accomplished by secondary analysis using Lineweaver-Burk plots and slope replots to determine true competitive inhibition and an experimental Ki value. Ki is the inhibition constant for the test chemical, i.e., the concentration of the test chemical that will bind to half the binding sites at equilibrium (displacing half of the probe-bound receptors), in the absence of radioligand or other competitors. Ki reported as Mean +/- Standard Error from n=2 experiments (see StandardError_Ki_n2) and is determined from Lineweaver-Burk plots over the tested dose range (TestedRange_microM). For more information see BindingCurve_Group and BindingCurve_Details. […]
# Chain of Estrogen receptor (Rattus norvegicus) (P06211 whole entry, looked up): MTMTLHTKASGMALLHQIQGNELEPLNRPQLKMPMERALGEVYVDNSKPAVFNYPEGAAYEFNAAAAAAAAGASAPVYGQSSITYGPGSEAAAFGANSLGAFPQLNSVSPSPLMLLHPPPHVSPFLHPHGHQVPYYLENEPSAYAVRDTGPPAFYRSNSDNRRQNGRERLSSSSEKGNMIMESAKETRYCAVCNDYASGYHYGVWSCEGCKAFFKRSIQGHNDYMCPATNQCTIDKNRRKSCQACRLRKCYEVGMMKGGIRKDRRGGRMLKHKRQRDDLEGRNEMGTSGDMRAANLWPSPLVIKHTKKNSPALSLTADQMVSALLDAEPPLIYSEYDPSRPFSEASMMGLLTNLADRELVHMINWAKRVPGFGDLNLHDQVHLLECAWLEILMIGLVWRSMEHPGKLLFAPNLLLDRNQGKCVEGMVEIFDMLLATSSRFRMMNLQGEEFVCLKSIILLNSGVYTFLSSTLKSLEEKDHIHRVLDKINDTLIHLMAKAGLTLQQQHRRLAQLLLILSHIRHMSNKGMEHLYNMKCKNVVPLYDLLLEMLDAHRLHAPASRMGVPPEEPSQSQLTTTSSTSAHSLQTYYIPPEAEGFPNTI
row,Structure (SMILES),outcome
1,Nc1c(N=Nc2ccc([N+](=O)[O-])cc2)c(S(=O)(=O)O)cc2cc(S(=O)(=O)O)c(N=Nc3ccccc3)c(O)c12,inactive; none
2,C=CC(=O)OCC(C)O (configuration not stated),inactive; none
3,CCO[Si](C)(CCCN)OCC,inactive; none
4,Cc1cscn1,inactive; none
5,CC1CCCCN1CCCOC(=O)c1ccc(Cl)c(Cl)c1 (configuration not stated),inactive; none
6,CC1=CC(=C(c2ccc(N)cc2)c2ccc(N)cc2)C=CC1=N,inactive; none
7,CCCCCN(CCCCC)CCCCC,inactive; none
8,COCCOC(=O)CC#N,inactive; none
9,CCC(CO)(CO)CO,inactive; none
10,ClCC1OCCO1,inactive; none
11,O=C(O)C1CCC(C(=O)O)CC1 (configuration not stated),inactive; none
12,O=C(O)c1ccc2cc(O)ccc2c1,inactive; none
13,CO[Si](CCCCl)(OC)OC,inactive; none
14,O=C(OCc1ccccc1)C(=O)OCc1ccccc1,inactive; none
15,CSc1ccc(C(=O)C(C)(C)N2CCOCC2)cc1,inactive; none
16,COC(=O)C(C)O (configuration not stated),inactive; none
17,O=C(Oc1ccccc1)c1ccccc1O,inactive; incomplete
18,COC(=O)CCCCC(=O)OC,inactive; none
19,CCSC(C)CC1CC(=O)C(/C(CC)=N/OC/C=C/Cl)=C(O)C1 (configuration not stated),inactive; none
20,CCCCN(CCCC)C(=S)[S-].CCCCN(CCCC)C(=S)[S-].[Ni+2],inactive; none
21,O=[N+]([O-])c1c(Cl)c(Cl)c(Cl)c(Cl)c1Cl,inactive; none
22,COC(=O)c1cccc(C)c1S(=O)(=O)NC(=O)Nc1nc(OCC(F)(F)F)nc(N(C)C)n1,inactive; none
23,CCCCCCCCCC#N,inactive; none

row,Structure (SMILES),outcome
1,CC(C)(c1cc(Br)c(OCCO)c(Br)c1)c1cc(Br)c(OCCO)c(Br)c1,inactive; none
2,CCO[Si](CCCN=C=O)(OCC)OCC,inactive; none
3,ClC1(Cl)C2(Cl)C3(Cl)C4(Cl)C(Cl)(Cl)C5(Cl)C3(Cl)C1(Cl)C5(Cl)C24Cl (configuration not stated),inactive; none
4,c1ccc(-c2ccccc2)cc1,inactive; none
5,COc1ccc(C(=O)c2ccc(OC)cc2O)c(O)c1,inactive; none
6,C=C(C)C(=O)OCCOCC,inactive; none
7,CCCCCCCCCCCCCC(=O)OCCCC,inactive; none
8,Cc1cc(C(C)(C)C)cc(C)c1C,inactive; none
9,CC1COc2ccccc2N1C(=O)C(Cl)Cl (configuration not stated),inactive; none
10,Cc1cccc[n+]1[O-],inactive; none
11,N#Cc1cc([N+](=O)[O-])ccc1N,inactive; none
12,CC(C)(C)c1cc(Cc2cc(C(C)(C)C)c(O)c(C(C)(C)C)c2)cc(C(C)(C)C)c1O,inactive; none
13,C=C[Si](C)(C)O[Si](C)(C)C=C,inactive; none
14,O=C(O)c1ccccc1COc1ccccc1,inactive; none
15,CC(=O)CC(=O)N(C)C,inactive; none
16,C1=CCCCC1,inactive; none
17,CCOC(=O)C(CC)C(=O)OCC,inactive; none
18,O=C(O)CC(O)(CC(=O)O)C(=O)O,inactive; none
19,NCCCCCCNCCCCCCN,inactive; none
20,CC(C)CC(=O)O,inactive; none
21,CCCCCCCCCCCCCCCCCCCCCCCCO,inactive; none
22,Cc1c(C)c2c(c(C)c1O)CC[C@@](C)(CCC[C@H](C)CCC[C@H](C)CCCC(C)C)O2,inactive; none
23,CCc1ccc(CC)cc1,inactive; none

row,Structure (SMILES),outcome
1,N#CCc1ccccc1,inactive; none
2,CN(C)C(=O)Nc1ccc(Cl)c(Cl)c1,inactive; none
3,O=C(Oc1cccc(O)c1)c1ccccc1,inactive; none
4,Cc1cc(O)c(C(C)(C)C)cc1C(C)CC(c1cc(C(C)(C)C)c(O)cc1C)c1cc(C(C)(C)C)c(O)cc1C (configuration not stated),inactive; none
5,CCC(C)N (configuration not stated),inactive; none
6,CCOC(=O)/C=C/c1ccc(/C=C/C(=O)OCC)cc1,inactive; none
7,C=CC(=O)OCCOCCOC(=O)C=C,inactive; none
8,CCCCCOC(C)=O,inactive; none
9,C(CCOCC1CO1)COCC1CO1 (configuration not stated),inactive; none
10,CCCCCCCCCCCCCCCCCCN,inactive; none
11,CC(O)C(=O)O (configuration not stated),inactive; none
12,OC1OCCOC1O (configuration not stated),inactive; none
13,CO[Si](CCCN)(OC)OC,inactive; none
14,CCCCCCOc1ccccc1C(=O)O,inactive; none
15,CCN(CC)c1ccc(C(=C2C=CC(=[N+](CC)CC)C=C2)c2ccc(N(CC)CC)cc2)cc1,inactive; none
16,Cc1cc[cH-]c1.[C-]#[O+].[C-]#[O+].[C-]#[O+].[Mn],inactive; none
17,NNC(=O)NN,inactive; none
18,CCO[Si](CCCCl)(OCC)OCC,inactive; none
19,CCN=C1C=CC(=C(c2ccc(N(CC)CC)cc2)c2ccc(N(CC)CC)cc2)c2ccccc21,inactive; none
20,CCOc1ccc2c(c1)C(C)=CC(C)(C)N2,inactive; none
21,ClC(Cl)C(Cl)Cl,inactive; none
22,COc1nc(C)nc(NC(=O)NS(=O)(=O)c2ccccc2Cl)n1,inactive; none
23,CC/C=C\CCOC(=O)c1ccccc1O,inactive; incomplete

row,Structure (SMILES),outcome
1,Cc1ccc([N+](=O)[O-])c(C)c1,inactive; none
2,N#CCC(=O)O,inactive; none
3,CC(C)CCCCCOC(=O)CS,inactive; none
4,CCCCCCOC(C)=O,inactive; none
5,CCCCCCC,inactive; none
6,O=C1OC2(c3ccc(O)cc3Oc3cc(O)ccc32)c2ccccc21,inactive; none
7,CCc1ccc(Br)cc1,inactive; incomplete
8,CCSC(=O)N(CC)C1CCCCC1,inactive; none
9,COc1cc([N+](=O)[O-])ccc1N,inactive; none
10,Cc1cc(C)c(C)cc1C,inactive; none
11,Cc1ccc2n[nH]nc2c1,inactive; none
12,CCCCCCOC(=O)c1ccccc1C(=O)OCCCCCC,inactive; none
13,C=CC(=O)OCC(C)C,inactive; none
14,CC(CO)c1ccccc1 (configuration not stated),inactive; incomplete
15,Cc1cc(C(C)(C)C)c(O)c(C)c1Cn1c(=O)n(Cc2c(C)cc(C(C)(C)C)c(O)c2C)c(=O)n(Cc2c(C)cc(C(C)(C)C)c(O)c2C)c1=O,inactive; none
16,COc1cc(Cl)c(OC)cc1Cl,inactive; none
17,O=P(O)(O)CCCl,inactive; none
18,O=C1CCC(=O)O1,inactive; none
19,O=C(O)c1c(Cl)c(Cl)c(Cl)c(Cl)c1C1c2cc(Br)c(O)c(Br)c2Oc2c1cc(Br)c(O)c2Br,inactive; none
20,C=CC(=O)OCCC(F)(F)C(F)(F)C(F)(F)C(F)(F)C(F)(F)C(F)(F)F,inactive; none
21,CC(c1cc(C(C)(C)C)cc(C(C)(C)C)c1O)c1cc(C(C)(C)C)cc(C(C)(C)C)c1O,inactive; none
22,O=C(Nc1ccc(Cl)cc1)Nc1ccc(Cl)c(Cl)c1,inactive; none

# Same assay, conditions: Rat uterine cytosol ER, 3H-estradiol competitive binding; TestedRange_microM: 0.6-1.2
row,Structure (SMILES),Potency [µM]
1,CC(C)CCCCCCc1ccc(O)cc1,0.6

# Same assay, conditions: Rat uterine cytosol ER, 3H-estradiol competitive binding; TestedRange_microM: 1-10
row,Structure (SMILES),outcome
1,CCCCCCCCCCCCCCN(C)C,inactive; complete

# Same assay, conditions: Rat uterine cytosol ER, 3H-estradiol competitive binding; TestedRange_microM: 2.5-7.5
row,Structure (SMILES),Potency [µM]
1,Oc1ccc(C(c2ccc(O)cc2)(C(F)(F)F)C(F)(F)F)cc1,1.9

# Same assay, conditions: Rat uterine cytosol ER, 3H-estradiol competitive binding; TestedRange_microM: 10-100
row,Structure (SMILES),Potency [µM]
1,O=S(=O)(c1ccc(O)cc1)c1ccc(O)cc1,82.4
2,O=C(c1ccccc1)c1ccc(O)c(O)c1O,103

# Same assay, conditions: Rat uterine cytosol ER, 3H-estradiol competitive binding; TestedRange_microM: 30-200
row,Structure (SMILES),Potency [µM]
1,Cc1cc(O)ccc1Cl,373
